Experimental findings from US8017654B2, “Combination cancer therapy with bis(thiohydrazide) amide compounds” (priority 2005, dated 2011) are described below.

Molecules are shown by their SMILES.

The nature of data set [1]: Phase I trial, pharmacokinetics in plasma by LC/MS during cycle 1. How it is done:
Pharmacokinetic (PK) studies were performed during cycle 1 using liquid chromatography/mass spectrometry (LC/MS) to measure both compounds in plasma. Heat shock protein 70 (Hsp70) was measured in plasma before and after treatment.

The mark [2] stands for this setting: co-administered with Compound (1) 44-525 mg/m2.

For `CN(NC(=O)CC(=O)NN(C)C(=S)c1ccccc1)C(=S)c1ccccc1` [Compound (1)], for the setting “35 patients, 8 dose levels, with paclitaxel”, the “serious effects specifically attributable to Compound (1)” value is on record as “No serious effects”. Moreover, the PK linearity entry in data set [1] (Compound (1) 44-525 mg/m2, unaffected by paclitaxel dose) is listed as “linear PK”.
As for `CC(=O)O[C@H]1C(=O)[C@@]2(C)[C@H]([C@H](OC(=O)c3ccccc3)[C@]3(O)C[C@H](OC(=O)[C@H](O)[C@@H](NC(=O)c4ccccc4)c4ccccc4)C(C)=C1C3(C)C)[C@]1(OC(C)=O)CO[C@@H]1C[C@@H]2O` [Paclitaxel, paclitaxel], the “Paclitaxel dose limiting toxicities” value (in vivo) was “occurred in a single patient in each of the top three dose levels”. In data set [1] (setting [2]), the “Paclitaxel clearance, trend with Compound (1) dose” value is “significant trend toward decreasing clearance” and the “Paclitaxel terminal phase half-life, effect of Compound (1) dose” value was “without affecting the terminal phase half-life”.
